According to patent US20230219904A1 (SYNGENTA CROP PROTECTION AG, priority 2020, published 2023):

Tests used:
Type in all cases: in vivo
Conditions in all cases: applied at 125 g/ha, evaluated after 13 days
[1] = tested on: Amaranthus retoflexus (AMARE); assay: Post-emergence herbicidal glasshouse test (Table B1)
Description: (§1) Seeds of a variety of test species are sown in standard soil in pots (Lolium perenne (LOLPE), Amaranthus retoflexus (AMARE), Abutilon theophrasti (ABUTH), Setaria faberi (SETFA), Echinochloa crus-galh (ECHCG), Ipomoea hederacea (IPOHE)). After cultivation for one day (pre-emergence) or after 8 days cultivation (post-emergence) under controlled conditions in a glasshouse (at 24/16° C., day/night; 14 hours light; 65% humidity), the plants are sprayed with an aqueous spray solution derived from the formulation of the technical active ingredient in acetone/water (50:50) solution containing 0.5% Tween 20 (polyoxyethelyene sorbitan monolaurate, CAS RN 9005-64-5). Compounds are applied at 500 g/h unless otherwise indicated. The test plants are then grown in a glasshouse under controlled conditions in a glasshouse (at 24/16° C., day/night; 14 hours light; 65% humidity) and watered twice daily. After 13 days for pre and post-emergence, the test is evaluated for the percentage damage caused to the plant. The biological activities are shown in the following table on a five-point scale (5=80-100%; 4=60-79%; 3=40-59%; 2=20-39%; 1=0-19%).

Setaria faberi (SETFA) [2] = assay: as above
Description: as §1

[3] = tested on: Ipomoea hederacea (IPOHE); assay: as above
Description: as §1

[4] = tested on: Echinochloa crus-galh (ECHCG); assay: as above
Description: as §1

[5] = tested on: Amaranthus retoflexus (AMARE); assay: Pre-emergence herbicidal glasshouse test (Table B1)
Description: as §1

Setaria faberi (SETFA) [6] = assay: as above
Description: as §1

[7] = tested on: Abutilon theophrasti (ABUTH); assay: as above
Description: as §1

[8] = tested on: Ipomoea hederacea (IPOHE); assay: as above
Description: as §1

[9] = tested on: Echinochloa crus-galh (ECHCG); assay: as above
Description: as §1

| Structure (SMILES) | POST Application AMARE, percentage damage on five-point scale [1] | POST Application SETFA, percentage damage on five-point scale (Setaria faberi (SETFA) [2]) | POST Application IPOHE, percentage damage on five-point scale [3] | POST Application ECHCG, percentage damage on five-point scale [4] | PRE Application AMARE, percentage damage on five-point scale [5] | PRE Application SETFA, percentage damage on five-point scale (Setaria faberi (SETFA) [6]) | PRE Application ABUTH, percentage damage on five-point scale [7] | PRE Application IPOHE, percentage damage on five-point scale [8] | PRE Application ECHCG, percentage damage on five-point scale [9] |
| --- | --- | --- | --- | --- | --- | --- | --- | --- | --- |
| Cn1cc(C(=O)Nc2c(OC(F)(F)F)ccc(C(=O)Nc3nnnn3C)c2Cl)c(C(F)F)n1 [Compound 1.045] | 5 (5=80-100%) | 5 (5=80-100%) | 4 (4=60-79%) | 5 (5=80-100%) | 5 (5=80-100%) | 5 (5=80-100%) | 5 (5=80-100%) | 4 (4=60-79%) | 5 (5=80-100%) |
| Cc1cc(C(=O)Nc2c(OC(F)(F)F)ccc(C(=O)Nc3nnnn3C)c2Cl)nn1C [Compound 1.046] | 5 (5=80-100%) | 5 (5=80-100%) | 5 (5=80-100%) | 5 (5=80-100%) | 5 (5=80-100%) | 5 (5=80-100%) | 5 (5=80-100%) | 5 (5=80-100%) | 5 (5=80-100%) |
| Cc1c(C(F)F)c(C(=O)Nc2c(OC(F)F)ccc(C(=O)Nc3nnnn3C)c2Cl)nn1C [Compound 1.052] | 5 (5=80-100%) | 5 (5=80-100%) | 4 (4=60-79%) | 4 (4=60-79%) | 5 (5=80-100%) | 5 (5=80-100%) | 5 (5=80-100%) | 4 (4=60-79%) | 5 (5=80-100%) |
| Cn1nnnc1NC(=O)c1ccc(OC(F)F)c(NC(=O)c2cc(C(F)(F)F)ccn2)c1Cl [Compound 1.053] | 5 (5=80-100%) | 5 (5=80-100%) | 4 (4=60-79%) | 3 (3=40-59%) | 5 (5=80-100%) | 4 (4=60-79%) | 5 (5=80-100%) | 4 (4=60-79%) | 4 (4=60-79%) |
| CCOCCC(=O)Nc1c(OC(F)(F)F)ccc(C(=O)Nc2nnnn2C)c1Cl [Compound 1.057] | 5 (5=80-100%) | 5 (5=80-100%) | 4 (4=60-79%) | 5 (5=80-100%) | 5 (5=80-100%) | 4 (4=60-79%) | 5 (5=80-100%) | 5 (5=80-100%) | 5 (5=80-100%) |
| COCCCC(=O)Nc1c(OC(F)(F)F)ccc(C(=O)Nc2nnnn2C)c1Cl [Compound 1.058] | 4 (4=60-79%) | 4 (4=60-79%) | 4 (4=60-79%) | 5 (5=80-100%) | 5 (5=80-100%) | 3 (3=40-59%) | 5 (5=80-100%) | 5 (5=80-100%) | 5 (5=80-100%) |
| Cn1nnnc1NC(=O)c1ccc(OC(F)(F)F)c(NC(=O)C(F)F)c1Cl [Compound 1.059] | 5 (5=80-100%) | 4 (4=60-79%) | 3 (3=40-59%) | 5 (5=80-100%) | 5 (5=80-100%) | 1 (1=0-19%) | 5 (5=80-100%) | 3 (3=40-59%) | 4 (4=60-79%) |
| CCn1nnnc1NC(=O)c1ccc(OC(F)(F)F)c(NC(=O)C(C)(F)F)c1Cl [Compound 1.060] | 5 (5=80-100%) | 5 (5=80-100%) | 4 (4=60-79%) | 4 (4=60-79%) | 5 (5=80-100%) | 4 (4=60-79%) | 5 (5=80-100%) | 3 (3=40-59%) | 4 (4=60-79%) |
| CCn1nnnc1NC(=O)c1ccc(OC(F)(F)F)c(NC(=O)CCCOC)c1Cl [Compound 1.067] | 5 (5=80-100%) | 5 (5=80-100%) | 4 (4=60-79%) | 5 (5=80-100%) | 5 (5=80-100%) | 5 (5=80-100%) | 5 (5=80-100%) | 5 (5=80-100%) | 5 (5=80-100%) |
| CCC(COC)C(=O)Nc1c(OC(F)(F)F)ccc(C(=O)Nc2nnnn2CC)c1Cl (stereo not drawn) [Compound 1.069] | 4 (4=60-79%) | 5 (5=80-100%) | 4 (4=60-79%) | 5 (5=80-100%) | 5 (5=80-100%) | 5 (5=80-100%) | 5 (5=80-100%) | 4 (4=60-79%) | 5 (5=80-100%) |
| CCCOCC(=O)Nc1c(OC(F)(F)F)ccc(C(=O)Nc2nnnn2CC)c1Cl [Compound 1.070] | 4 (4=60-79%) | 4 (4=60-79%) | 4 (4=60-79%) | 4 (4=60-79%) | 5 (5=80-100%) | 4 (4=60-79%) | 5 (5=80-100%) | 4 (4=60-79%) | 4 (4=60-79%) |
| CCn1nnnc1NC(=O)c1ccc(OC(F)(F)F)c(NC(=O)C(C)OC)c1Cl (stereo not drawn) [Compound 1.071] | 4 (4=60-79%) | 5 (5=80-100%) | 4 (4=60-79%) | 5 (5=80-100%) | 5 (5=80-100%) | 5 (5=80-100%) | 5 (5=80-100%) | 5 (5=80-100%) | 5 (5=80-100%) |
| CCn1nnnc1NC(=O)c1ccc(OC(F)(F)F)c(NC(=O)COC(C)C)c1Cl [Compound 1.072] | 4 (4=60-79%) | 5 (5=80-100%) | 4 (4=60-79%) | 5 (5=80-100%) | 5 (5=80-100%) | 4 (4=60-79%) | 5 (5=80-100%) | 5 (5=80-100%) | 5 (5=80-100%) |
| CCOC(C)C(=O)Nc1c(OC(F)(F)F)ccc(C(=O)Nc2nnnn2CC)c1Cl (stereo not drawn) [Compound 1.073] | 5 (5=80-100%) | 5 (5=80-100%) | 4 (4=60-79%) | 5 (5=80-100%) | 5 (5=80-100%) | 5 (5=80-100%) | 5 (5=80-100%) | 5 (5=80-100%) | 5 (5=80-100%) |
